What was measured:
CAL120 = assay: GRmax, 72 h; higher = less effect;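 also: breast cell lines in 384-well plates, nine doses across a 10^4 range, Dye Drop imaging of viable cells vs DMSO and time-zero plates, GR 0 means no net growth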
CAMA1 = assay: GRmax, 72 h; higher = less effect;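 also: breast cell lines in 384-well plates, nine doses across a 10^4 range, Dye Drop imaging of viable cells vs DMSO and time-zero plates, GR 0 means no net growth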
HCC1187 = assay: GRmax, 72 h; higher = less effect;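 also: breast cell lines in 384-well plates, nine doses across a 10^4 range, Dye Drop imaging of viable cells vs DMSO and time-zero plates, GR 0 means no net growth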
HCC202 = assay: GRmax, 72 h; higher = less effect;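 also: breast cell lines in 384-well plates, nine doses across a 10^4 range, Dye Drop imaging of viable cells vs DMSO and time-zero plates, GR 0 means no net growth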
MCF10A = assay: GRmax, 72 h; higher = less effect
SKBR3 = assay: GRmax, 72 h; higher = less effect
SUM1315 = assay: GRmax, 72 h; higher = less effect
SUM185PE = assay: GRmax, 72 h; higher = less effect
SUM190PT = assay: GRmax, 72 h; higher = less effect
SUM52PE = assay: GRmax, 72 h; higher = less effect
HCC1569 = assay: area over the GR curve, 72 h; higher = more effect;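 also: Dye Drop or Deep Dye Drop imaging of viable cells in 384-well plates (Hoechst nuclei, LIVE/DEAD dye), nine half-log doses, GR normalized to DMSO controls and time-zero plates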
HCC1954 = assay: area over the GR curve, 72 h; higher = more effect;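 also: Dye Drop or Deep Dye Drop imaging of viable cells in 384-well plates (Hoechst nuclei, LIVE/DEAD dye), nine half-log doses, GR normalized to DMSO controls and time-zero plates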
SUM44PE = assay: area over the GR curve, 72 h; higher = more effect;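 also: Dye Drop or Deep Dye Drop imaging of viable cells in 384-well plates (Hoechst nuclei, LIVE/DEAD dye), nine half-log doses, GR normalized to DMSO controls and time-zero plates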

SMILES	GRmax, 72 h (CAL120)	GRmax, 72 h (CAMA1)	GRmax, 72 h (HCC1187)	GRmax, 72 h (HCC202)	GRmax, 72 h (MCF10A)	GRmax, 72 h (SKBR3)	GRmax, 72 h (SUM1315)	GRmax, 72 h (SUM185PE)	GRmax, 72 h (SUM190PT)	GRmax, 72 h (SUM52PE)	area over the GR curve (HCC1569)	area over the GR curve (HCC1954)	area over the GR curve (SUM44PE)	GRmax, 72 h (CAL120; main component drawn)	GRmax, 72 h (CAMA1; main component drawn)	GRmax, 72 h (MCF10A; main component drawn)	GRmax, 72 h (SKBR3; main component drawn)	GRmax, 72 h (SUM1315; main component drawn)	area over the GR curve (HCC1954; main component drawn)
CN(C)CC[C@H](CSc1ccccc1)Nc1ccc(S(=O)(=O)NC(=O)c2ccc(N3CCN(Cc4ccccc4-c4ccc(Cl)cc4)CC3)cc2)cc1[N+](=O)[O-] [ABT-737] (max 10 µM)	-0.434 GR	0.864 GR	0.492 GR	0.588 GR	0.817 GR	0.947 GR	0.306 GR	-0.294 GR	-0.475 GR	0.441 GR	0.318 GR	0.027 GR	-0.0051 GR						
C=CCn1c(=O)c2cnc(Nc3ccc(N4CCN(C)CC4)cc3)nc2n1-c1cccc(C(C)(C)O)n1 [AZD1775] (max 10 µM)	-0.238 GR	-0.206 GR	-0.729 GR	-0.148 GR	0.0997 GR	-0.561 GR	-0.747 GR	0.213 GR	-0.197 GR	-0.226 GR	0.825 GR	0.295 GR	0.502 GR						
CNC(=O)c1cccc(-c2ccc3c(N4CCOC[C@@H]4C)nc(N4CCOC[C@@H]4C)nc3n2)c1 [AZD2014] (max 10 µM)	0.206 GR	-0.0933 GR	0.227 GR	0.0087 GR	0.183 GR	-0.0488 GR	0.0994 GR	0.244 GR	-0.514 GR	-0.0804 GR	0.625 GR	0.568 GR	0.917 GR						
NC1(C(=O)N[C@@H](CCO)c2ccc(Cl)cc2)CCN(c2nc[nH]c3nccc2-3)CC1 [AZD5363] (max 10 µM)	0.806 GR	-0.124 GR	0.426 GR	0.572 GR	0.805 GR	0.138 GR	0.694 GR	0.447 GR	0.243 GR	0.18 GR	0.433 GR	0.23 GR	0.596 GR						
C[C@@H]1COCCN1c1cc(C2([S@](C)(=N)=O)CC2)nc(-c2cc[nH]c3nccc2-3)n1 [AZD6738] (max 10 µM)	0.783 GR	0.25 GR	-0.332 GR	0.383 GR	0.442 GR	-0.0886 GR	-0.169 GR	0.687 GR	-0.036 GR	-0.174 GR	0.053 GR	-0.0136 GR	0.365 GR						
NC(=O)Nc1cc(-c2cccc(F)c2)sc1C(=O)N[C@H]1CCCNC1 [AZD7762] (max 10 µM)	-0.495 GR	-0.0865 GR	-0.691 GR	-0.277 GR	-0.18 GR	-0.451 GR	-0.653 GR	0.115 GR	-0.341 GR	-0.322 GR	0.772 GR	0.515 GR	0.738 GR						
Cc1nc(NC(=O)N2CCC[C@H]2C(N)=O)sc1-c1ccnc(C(C)(C)C(F)(F)F)c1 [Alpelisib/BYL719] (max 10 µM)	0.608 GR	0.979 GR	0.608 GR	0.0449 GR	0.579 GR	-0.143 GR	0.383 GR	0.15 GR	0.532 GR	0.0427 GR	0.0913 GR	0.264 GR	0.33 GR						
CN(C)C/C=C/C(=O)Nc1ccc(O[C@@H]2CCC[C@@H](Nc3ncc(Cl)c(-c4c[nH]c5ccccc45)n3)C2)cc1 [BSJ-01-175] (max 10 µM)	-0.272 GR	-0.712 GR	-0.827 GR	-0.201 GR	-0.566 GR	-0.769 GR	-0.864 GR	-0.47 GR	-0.545 GR	-0.673 GR	0.907 GR	0.66 GR	1.27 GR						
CC(=O)c1c(C)c2cnc(Nc3ccc(N4CCN(CCOCCOCCOCCNC(=O)COc5cccc6c5C(=O)N(C5CCC(=O)NC5=O)C6=O)CC4)cn3)nc2n(C2CCCC2)c1=O (centres undefined) [BSJ-03-123] (max 10 µM)	0.239 GR	0.0546 GR	-0.518 GR	0.0834 GR	-0.113 GR	-0.347 GR	0.236 GR	0.665 GR	-0.279 GR	0.227 GR	0.183 GR	0.33 GR	0.284 GR						
CC(C)Nc1cc(-c2c[nH]c(C(=O)N[C@H](CO)c3cccc(Cl)c3)c2)c(Cl)cn1 [BVD523] (max 10 µM)	0.482 GR	0.156 GR	0.649 GR	0.57 GR	0.185 GR	0.34 GR	0.207 GR	0.734 GR	0.237 GR	0.315 GR	-0.026 GR	0.242 GR	0.218 GR						
Cc1c(N)nc([C@H](CC(N)=O)NC[C@H](N)C(N)=O)nc1C(=O)N[C@H](C(=O)N[C@H](C)[C@@H](O)[C@H](C)C(=O)N[C@H](C(=O)NCCc1nc(-c2nc(C(=O)NCCC[S+](C)C)cs2)cs1)[C@@H](C)O)[C@@H](OC1OC(CO)C(O)C(O)C1OC1OC(CO)C(O)C(OC(N)=O)C1O)c1cnc[nH]1 (some centres undefined) [Bleomycin] (max 10 µM)														0.0886 GR	-0.0365 GR	0.0378 GR	0.187 GR	0.149 GR	0.617 GR
N.N.[Cl][Pt][Cl] [Cisplatin] (max 10 µM)	0.188 GR	-0.0042 GR			0.379 GR	0.249 GR	0.203 GR					0.275 GR							
COc1cc([C@@H]2c3cc4c(cc3[C@@H](O[C@@H]3O[C@@H]5CO[C@@H](C)O[C@H]5[C@H](O)[C@H]3O)[C@H]3COC(=O)[C@H]23)OCO4)cc(OC)c1O [Etoposide] (max 10 µM)	-0.166 GR	-0.448 GR			-0.0699 GR	-0.317 GR	0.0416 GR					0.501 GR							
CC[C@@]1(O)C(=O)OCc2c1cc1n(c2=O)Cc2cc3c(CN(C)C)c(O)ccc3nc2-1 [Topotecan] (max 10 µM)	-0.336 GR	-0.423 GR			-0.2 GR	-0.271 GR	-0.332 GR					0.869 GR							

Reference: the supplement of paper PMC9663587
